From patent publication US9822099B2, “Triazole derivatives” (priority 2013, dated 2017)
Marks after values point to notes of the source that are not given here.

System: Leptosphaeria nodorum
Assay: Example K: Leptosphaeria nodorum test (wheat)/preventive
Assay type: in vivo
Conditions: 500 ppm of active ingredient, preventive, evaluated 8 days after inoculation
Procedure: Solvent: 49 parts by weight of N,N-dimethylacetamide Emulsifier: 1 part by weight of alkylaryl polyglycol ether To produce a suitable preparation of active compound, 1 part by weight of active compound or active compound combination is mixed with the stated amounts of solvent and emulsifier, and the concentrate is diluted with water to the desired concentration. To test for preventive activity, young plants are sprayed with the preparation of active compound or active compound combination at the stated rate of application. After the spray coating has been dried, the plants are sprayed with a spore suspension of Leptosphaeria nodorum.
`CC(C)(Oc1ccc(Cl)cc1)C(O)(Cc1ccncc1Cl)Cn1cncn1` (racemic) [Example I-70] gave an Eff. % of 89%. For `OC(Cc1ccncc1C(F)(F)F)(Cn1cncn1)C1(Cl)CC1` (racemic) [Example I-81], the Eff. % was 100%. In the case of `OC(Cc1cccnc1Cl)(Cn1cncn1)C1(Cl)CC1` (single isomer, unassigned) [Example I-94], the Eff. % is reported as 71%. For `OC(Cc1cccnc1Cl)(Cn1cncn1)C1(Cl)CC1` (single isomer, unassigned) [Example I-95], the Eff. % was 100%.

System: Blumeria graminis f. sp. hordei
Assay: Example G: Blumeria test (barley)/preventive
Assay type: in vivo
Conditions: 500 ppm of active ingredient, preventive, evaluated 7 days after inoculation
Procedure: Solvent: 49 parts by weight of N,N-dimethylacetamide Emulsifier: 1 part by weight of alkylaryl polyglycol ether To produce a suitable preparation of active compound, 1 part by weight of active compound or active compound combination is mixed with the stated amounts of solvent and emulsifier, and the concentrate is diluted with water to the desired concentration. To test for preventive activity, young plants are sprayed with the preparation of active compound or active compound combination at the stated rate of application. After the spray coating has been dried, the plants are dusted with spores of Blumeria graminis f. sp. hordei.
`CC(C)(Oc1ccc(Cl)cc1)C(O)(Cc1ccncc1Cl)Cn1cncn1` (racemic) [Example I-70] gave an Eff. % of 100%. `OC(Cc1ccncc1C(F)(F)F)(Cn1cncn1)C1(Cl)CC1` (racemic) [Example I-81] showed an Eff. % of 100%. For `OC(Cc1cccnc1Cl)(Cn1cncn1)C1(Cl)CC1` (single isomer, unassigned) [Example I-94], the Eff. % was 100%. Work on `OC(Cc1cccnc1Cl)(Cn1cncn1)C1(Cl)CC1` (single isomer, unassigned) [Example I-95] yielded an Eff. % of 100%.

System: Pyrenophora teres
Assay: Example C: in vivo preventive test on Pyrenophora teres (net blotch on barley)
Conditions: 500 ppm of active ingredient; barley plants, preventive spray; evaluated 14 days after inoculation
Procedure: (§1) The young plants of barley are treated by spraying the active ingredient prepared as described above. Control plants are treated only with an aqueous solution of acetone/Dimethyl sulfoxide/Tween®. After 24 hours, the plants are contaminated by spraying the leaves with an aqueous suspension of Pyrenophora teres spores.
`OC(Cc1ccncc1C(F)(F)F)(Cn1cncn1)C1(Cl)CC1` (racemic) [Example I-81] gave an Eff. % of 97%.

System: Phakopsora pachyrhizi
Assay: Example L: Phakopsora test (soybeans)/preventive
Assay type: in vivo
Conditions: 10 ppm of active ingredient, preventive, evaluated 7 days after inoculation
Work on `OC(Cc1ccncc1C(F)(F)F)(Cn1cncn1)C1(Cl)CC1` (racemic) [Example I-81] yielded an Eff. % of 85%.

System: Pyricularia oryzae
Assay: not given
Assay type: in vivo
Conditions: 500 ppm of active ingredient; rice, preventive; evaluated 8 days after inoculation
`OC(Cc1ccncc1C(F)(F)F)(Cn1cncn1)C1(Cl)CC1` (racemic) [Example I-81] showed an Eff. % of 100%. `OC(Cc1cccnc1Cl)(Cn1cncn1)C1(Cl)CC1` (single isomer, unassigned) [Example I-94] showed an Eff. % of 70%. Work on `OC(Cc1cccnc1Cl)(Cn1cncn1)C1(Cl)CC1` (single isomer, unassigned) [Example I-95] yielded an Eff. % of 100%.

System: Puccinia recondita
Assay: Example B: in vivo preventive test on Puccinia recondita (brown rust on wheat)
Conditions: 500 ppm of active ingredient; wheat plants, preventive spray; evaluated 11 days after inoculation
Procedure: as §1, with “wheat” for “barley”, “Puccinia recondita” for “Pyrenophora teres”
For `CC(C)(Oc1ccc(Cl)cc1)C(O)(Cc1ccncc1Cl)Cn1cncn1` (racemic) [Example I-70], the Eff. % was 94%. `OC(Cc1ccncc1C(F)(F)F)(Cn1cncn1)C1(Cl)CC1` (racemic) [Example I-81] showed an Eff. % of 100%.

System: Fusarium nivale (var. majus)
Assay: Example J: Fusarium nivale (var. majus)-test (wheat)/preventive
Assay type: in vivo
Conditions: 500 ppm of active ingredient, preventive, evaluated 5 days after inoculation
Procedure: Solvent: 49 parts by weight of N,N-dimethylacetamide
Emulsifier: 1 part by weight of alkylaryl polyglycol ether
To produce a suitable preparation of active compound, 1 part by weight of active compound or active compound combination is mixed with the stated amounts of solvent and emulsifier, and the concentrate is diluted with water to the desired concentration.
To test for preventive activity, young plants are sprayed with the preparation of active compound or active compound combination at the stated rate of application.
After the spray coating has been dried, the plants are slightly injured by using a sandblast and afterwards they are sprayed with a conidia suspension of Fusarium nivale (var. majus).
The plants are placed in the greenhouse under a translucent incubation cabinet at a temperature of approximately 10° C. and a relative atmospheric humidity of approximately 100%.
The test is evaluated 5 days after the inoculation. 0% means an efficacy which corresponds to that of the untreated control, while an efficacy of 100% means that no disease is observed.
`CC(C)(Oc1ccc(Cl)cc1)C(O)(Cc1ccncc1Cl)Cn1cncn1` (racemic) [Example I-70] showed an Eff. % of 88%. Work on `OC(Cc1ccncc1C(F)(F)F)(Cn1cncn1)C1(Cl)CC1` (racemic) [Example I-81] yielded an Eff. % of 100%. `OC(Cc1cccnc1Cl)(Cn1cncn1)C1(Cl)CC1` (single isomer, unassigned) [Example I-94] gave an Eff. % of 100%. Work on `OC(Cc1cccnc1Cl)(Cn1cncn1)C1(Cl)CC1` (single isomer, unassigned) [Example I-95] yielded an Eff. % of 100%.

System: Sphaerotheca fuliginea
Assay: Example E: in vivo preventive test on Sphaerotheca fuliginea (powdery mildew on cucurbits)
Conditions: 500 ppm of active ingredient; gherkin plants, preventive spray; evaluated 15 days after inoculation
Procedure: as §1, with “gherkin” for “barley”, “Sphaerotheca fuliginea” for “Pyrenophora teres”
`CC(C)(Oc1ccc(Cl)cc1)C(O)(Cc1ccncc1Cl)Cn1cncn1` (racemic) [Example I-70] showed an Eff. % of 100%. For `OC(Cc1ccncc1C(F)(F)F)(Cn1cncn1)C1(Cl)CC1` (racemic) [Example I-81], the Eff. % was 100%.

System: Fusarium graminearum
Assay: not given
Assay type: in vivo
Conditions: 500 ppm of active ingredient; barley, preventive; evaluated 5 days after inoculation
Work on `OC(Cc1ccncc1C(F)(F)F)(Cn1cncn1)C1(Cl)CC1` (racemic) [Example I-81] yielded an Eff. % of 100%. `OC(Cc1cccnc1Cl)(Cn1cncn1)C1(Cl)CC1` (single isomer, unassigned) [Example I-95] showed an Eff. % of 100%.

System: Uromyces appendiculatus
Assay: Example F: in vivo preventive test on Uromyces appendiculatus (bean rust)
Conditions: 500 ppm of active ingredient; bean plants, preventive spray; evaluated 11 days after inoculation
Procedure: as §1, with “bean” for “barley”, “Uromyces appendiculatus” for “Pyrenophora teres”
With `CC(C)(Oc1ccc(Cl)cc1)C(O)(Cc1ccncc1Cl)Cn1cncn1` (racemic) [Example I-70] the Eff. % was 99%. Work on `OC(Cc1ccncc1C(F)(F)F)(Cn1cncn1)C1(Cl)CC1` (racemic) [Example I-81] yielded an Eff. % of 100%.

System: not given
Assay: not given
Conditions: pH 2.7
In the case of `CC(C)(Oc1ccc(Cl)cc1)C(O)(Cc1ccncc1Cl)Cn1cncn1` (racemic) [Example I-70], the LogP is reported as 2.84^[a]. In the case of `OC(Cc1ccncc1C(F)(F)F)(Cn1cncn1)C1(Cl)CC1` (racemic) [Example I-81], the LogP is reported as 2.08^[a]. In the case of `OC(Cc1cccnc1Cl)(Cn1cncn1)C1(Cl)CC1` (single isomer, unassigned) [Example I-94], the LogP is reported as 1.81^[a]. With `OC(Cc1cccnc1Cl)(Cn1cncn1)C1(Cl)CC1` (single isomer, unassigned) [Example I-95] the LogP was 1.81^[a].

Same assay, conditions: pH 7.8
For `OC(Cc1cccnc1Cl)(Cn1cncn1)C1(Cl)CC1` (single isomer, unassigned) [Example I-94], the LogP was 1.79^[b];. In the case of `OC(Cc1cccnc1Cl)(Cn1cncn1)C1(Cl)CC1` (single isomer, unassigned) [Example I-95], the LogP is reported as 1.79^[b];.

System: Septoria tritici
Assay: Example D: in vivo preventive test on Septoria tritici (leaf spot on wheat)
Conditions: 500 ppm of active ingredient; wheat plants, preventive spray; evaluated 24 days after inoculation
Procedure: as §1, with “wheat” for “barley”, “Septoria tritici” for “Pyrenophora teres”
`CC(C)(Oc1ccc(Cl)cc1)C(O)(Cc1ccncc1Cl)Cn1cncn1` (racemic) [Example I-70] gave an Eff. % of 100%. In the case of `OC(Cc1ccncc1C(F)(F)F)(Cn1cncn1)C1(Cl)CC1` (racemic) [Example I-81], the Eff. % is reported as 100%.

System: Botrytis cinerea
Assay: Example A: in vivo preventive test on Botrytis cinerea (grey mould)
Conditions: 500 ppm of active ingredient; gherkin plants, preventive spray; evaluated 4 to 5 days after inoculation
Procedure: as §1, with “gherkin” for “barley”, “Botrytis cinerea” for “Pyrenophora teres”
`OC(Cc1ccncc1C(F)(F)F)(Cn1cncn1)C1(Cl)CC1` (racemic) [Example I-81] gave an Eff. % of 99%.
